According to US20050256034A1, “Dioxolane analogs for improved inter-cellular delivery” (priority 2000, published 2005):

Columns and labels:
Format in all cases: cell-based
[1] = target: T1, hENT1 (es) in DU145 cells (Homo sapiens, UniProt Q99808); test: Cellular uptake assay of 3H-labelled nucleoside, NT inhibitor and self-competition
T1 construct: functional es-mediated transport (hENT1) in DU145 cells; endogenous in cells; host or cells: DU145 cells
T1 sequence (Q99808 1-456): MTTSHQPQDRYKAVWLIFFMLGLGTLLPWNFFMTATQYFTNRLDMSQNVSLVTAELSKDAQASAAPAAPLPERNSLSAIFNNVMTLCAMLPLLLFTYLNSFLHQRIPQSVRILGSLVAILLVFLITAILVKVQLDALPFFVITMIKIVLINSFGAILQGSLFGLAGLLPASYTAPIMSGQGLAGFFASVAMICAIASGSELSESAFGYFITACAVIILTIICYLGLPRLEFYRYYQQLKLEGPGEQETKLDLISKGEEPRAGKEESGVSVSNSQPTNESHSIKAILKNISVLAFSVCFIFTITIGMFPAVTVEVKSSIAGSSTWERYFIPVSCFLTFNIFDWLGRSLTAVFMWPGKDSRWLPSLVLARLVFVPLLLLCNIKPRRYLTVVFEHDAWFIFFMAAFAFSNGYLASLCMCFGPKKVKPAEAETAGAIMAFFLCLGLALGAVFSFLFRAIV
Experimental: FIG. 2 Comparative uptake of 10 μM [^3H]troxacitabine (0-240 min) (Panel B) and 10 μM [^3H]D-uridine (0-6 min) (Panel A) in the presence (▴) or absence ( ? ) of the hENT1 inhibitor, 100 nM NBMPP, in DU145 cells.
(§1) Cancer Res., 56: 4187-4191.
(FIG. 2A). In contrast, low levels of [^3H]troxacitabine were taken up and uptake was not affected by the presence of NBMPR (FIG. 2B).
DU145 cells: This experiment is designed to show whether [^3H]L-troxacitabine (10 μM) is taken up by DU145 cells and if the rate of uptake is affected by the addition of high concentrations (1 mM) of non-radioactive troxacitabine.

CEM cells = test: CellTiter 96 cell proliferation assay, 48 h exposure; conditions: Homo sapiens, CCRF-CEM, 48 h, read-out: Chemosensitivity, 50% of the dose response curve (EC50), CEM + NBMPR (100 nM), 48 h exposure, mean ± SD
Experimental: The chemosensitivity of suspension cells lines (e.g., CEM or CEM-derivatives) is assessed using the CellTiter 96 ? proliferation assay. […] Chemosensitivity is expressed as 50% (ECso) of the dose response curve determined, e.g., using GraphPad Prism 2.01 (GraphPad Software, San Diego, Calif.). Adherent cell lines (e.g., DU145 or DU145^R) are seeded (˜10^5 cells) in triplicate dishes, 24 h before drug exposure. Growth inhibition is determined by trypsinization and counting cells electronically.

hCNT3 = target: T2, hCNT3 (Homo sapiens, UniProt Q9HAS3); test: Inhibition of [3H]uridine uptake by cib-activity in differentiated HL-60 cells; conditions: 100-fold non-radioactive excess
T2 construct: Troxacitabine uptake by cib-activity (hCNT3) in differentiated HL-60 cells; endogenous in cells; host or cells: differentiated HL-60 cells
T2 sequence (Q9HAS3 1-691): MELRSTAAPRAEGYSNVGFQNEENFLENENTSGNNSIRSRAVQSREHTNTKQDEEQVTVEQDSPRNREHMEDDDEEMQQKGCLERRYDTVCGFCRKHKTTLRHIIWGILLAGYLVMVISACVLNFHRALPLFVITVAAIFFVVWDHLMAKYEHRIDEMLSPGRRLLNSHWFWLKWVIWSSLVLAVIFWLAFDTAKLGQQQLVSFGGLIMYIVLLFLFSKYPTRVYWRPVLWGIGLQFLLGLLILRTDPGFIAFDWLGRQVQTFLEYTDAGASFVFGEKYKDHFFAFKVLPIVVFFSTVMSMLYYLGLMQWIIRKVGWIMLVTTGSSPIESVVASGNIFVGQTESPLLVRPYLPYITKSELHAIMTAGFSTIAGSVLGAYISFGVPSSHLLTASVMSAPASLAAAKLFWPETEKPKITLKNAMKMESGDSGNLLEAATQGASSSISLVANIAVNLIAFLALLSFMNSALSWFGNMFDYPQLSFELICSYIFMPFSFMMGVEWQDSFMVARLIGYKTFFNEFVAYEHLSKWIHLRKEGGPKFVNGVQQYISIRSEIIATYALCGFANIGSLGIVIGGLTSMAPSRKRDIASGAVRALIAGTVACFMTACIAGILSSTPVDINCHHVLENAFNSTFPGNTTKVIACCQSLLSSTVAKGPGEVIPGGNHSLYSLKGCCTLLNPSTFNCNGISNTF

CEM cells (es, hENT1) = test: Cellular uptake assay of 3H-labelled nucleoside; conditions: 30 μM, 6-min time course, compared with uridine
Experimental: (§2) FIG. 1 Comparative uptake of 30 μM [^3H]-troxacitabine in CEM (Panel A) and CEM/APAC8C (Panel B) cells. [^3H]-Uridine uptake in either the presence or absence of the hENT1 inhibitor, NBMPR or 5 mM non-radioactive uridine was included for comparison as a control substrate.
as §1
(§3) The transport of [^3H]uridine was inhibited in the presence either of the hENT1 inhibitor, NBMPR, or excess non-radioactive uridine.

CEM/ARAC8C cells = test: Cellular uptake assay of 3H-labelled nucleoside; conditions: 30 μM, 6-min time course, compared with uridine
Experimental: as §2, §1, §3

effect of non-radioactive troxacitabine (1 mM) on uptake ([1]; 10 μM labelled): no significant effect
effect of NBMPR on uptake ([1]; 10 μM, 0-240 min, 100 nM NBMPR): not affected
rate of uptake ([1]; 10 μM, short (0-30 s) and prolonged exposures (0-4 h)): very slow
effect on [3H]uridine uptake by hCNT3 (hCNT3): no effect on uridine uptake
uptake of 3H-labelled nucleoside (CEM cells (es, hENT1)): taken up to a lesser degree
uptake of 3H-labelled nucleoside (CEM/ARAC8C cells): taken up to a lesser degree
Compound: Nc1ccn([C@@H]2CO[C@H](CO)O2)c(=O)n1 [Troxacitabine, troxacitabine]
EC50 (CEM cells): 210 ± 19 nM
